Assay results as given in article PMC6051542 (MedChemComm, 2017).
≈ marks a conversion by molar mass, not a printed value. Like-named read-outs stand apart in the source and are kept apart here.

Legend:
[1] = target: DNA gyrase ATPase activity (Escherichia coli, UniProt P0AES4+P0AES6); experiment: ATPase activity of DNA gyrase; type: biochemical, E. coli; conditions: up to a concentration of 100 μM
E. coli cells = conditions: cited from earlier work
[2] = tested on: gyrR strains derived from E. coli JW5503; experiment: MIC against the five gyrR strains derived from E. coli JW5503; type: cell-based; conditions: Escherichia coli, read-out: MIC against gyrR strains
[3] = tested on: E. coli cells, overexpression (gyrA/gyrB) (+/+); experiment: microbe, parasite or virus in culture; type: cell-based; conditions: Escherichia coli, induction + (IPTG)
[4] = tested on: E. coli JW5503 harboring pCA24N-gyrB; type: cell-based
[5] = tested on: E. coli, Edwardsiella tarda, S. enterica enterica Typhimurium, and S. flexneri; experiment: MIC against susceptible gram-negative strains; type: cell-based; conditions: read-out: MICs against susceptible gram-negative strains
gram-positive strains = experiment: MIC against all 9 gram-positive strains tested; type: cell-based; conditions: read-out: MIC values against all 9 gram-positive strains tested
E. coli JW5503 = conditions: cited from earlier work
E. coli BW25113 = conditions: wild-type E. coli BW25113; cited from earlier work

Chain of DNA gyrase ATPase activity (P0AES4 whole entry, one chain of several): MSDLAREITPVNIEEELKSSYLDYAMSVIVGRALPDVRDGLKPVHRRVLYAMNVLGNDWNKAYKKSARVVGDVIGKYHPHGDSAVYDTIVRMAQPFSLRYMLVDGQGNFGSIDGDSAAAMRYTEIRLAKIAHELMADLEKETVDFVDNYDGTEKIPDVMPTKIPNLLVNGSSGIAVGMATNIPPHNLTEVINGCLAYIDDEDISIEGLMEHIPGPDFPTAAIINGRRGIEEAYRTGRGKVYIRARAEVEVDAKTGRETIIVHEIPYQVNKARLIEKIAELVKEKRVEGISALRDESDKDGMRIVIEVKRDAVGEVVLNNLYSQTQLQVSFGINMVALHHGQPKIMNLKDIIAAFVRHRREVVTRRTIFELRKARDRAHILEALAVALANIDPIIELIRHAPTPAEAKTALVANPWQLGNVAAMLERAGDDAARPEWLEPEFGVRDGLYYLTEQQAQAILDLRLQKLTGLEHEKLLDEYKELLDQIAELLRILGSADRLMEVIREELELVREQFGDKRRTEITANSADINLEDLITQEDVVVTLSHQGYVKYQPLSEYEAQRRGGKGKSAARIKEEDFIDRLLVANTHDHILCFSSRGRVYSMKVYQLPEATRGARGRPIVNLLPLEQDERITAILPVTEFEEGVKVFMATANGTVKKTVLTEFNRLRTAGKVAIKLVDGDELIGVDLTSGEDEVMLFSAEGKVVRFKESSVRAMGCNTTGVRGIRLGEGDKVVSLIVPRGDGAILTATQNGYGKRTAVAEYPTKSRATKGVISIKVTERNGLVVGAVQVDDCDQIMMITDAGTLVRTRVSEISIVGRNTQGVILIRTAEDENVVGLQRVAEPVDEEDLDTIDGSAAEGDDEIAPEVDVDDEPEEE

O=C(O)c1cn(C2CC2)c2cc(N3CCNCC3)c(F)cc2c1=O [Compound 1, Ciprofloxacin]
inhibition of ATPase activity [1]: did not observe a decrease in ATPase activity
MIC (E. coli cells; E. coli cells before overexpression of DNA gyrase): 0.009 µg/mL (≈ 0.0272 µM)
MIC (E. coli cells; E. coli cells with overexpression of DNA gyrase): 0.002 µg/mL (≈ 0.00604 µM)
MIC [2]: 1.6 to 3.2 µg/mL (≈ 4.83 to 9.66 µM)
MIC [3]: 0.002 µg/mL

CO[C@@H]1[C@@H](OC(N)=O)[C@@H](O)[C@H](Oc2ccc3c(O)c(NC(=O)c4ccc(O)c(CC=C(C)C)c4)c(=O)oc3c2C)OC1(C)C [Compound 2, Novobiocin]
highest concentration at which cultures grew [4]: 51 µg/mL

N#Cc1cccc(S(=O)(=O)N[C@@H]2CCN(Cc3ccc(-c4ccccc4)cc3)C2)c1 [Compound 3, (R)-N-(1-([1,1′-biphenyl]-4-ylmethyl)pyrrolidin-3-yl)-3-cyanobenzenesulfonamide]
inhibition of ATPase activity [1]: did not inhibit the ATPase activity
MIC [5]: 2 to 16 µg/mL (≈ 4.79 to 38.3 µM)

Cc1ccc(C(F)(F)F)cc1S(=O)(=O)N[C@@H]1CCN(Cc2ccc(OC3CC3)cc2)C1 [Compound 4, (R)-N-(1-(4-cyclopropoxybenzyl)pyrrolidin-3-yl)-2-methyl-5-(trifluoromethyl)benzenesulfonamide]
MIC (gram-positive strains): 4 to 16 µg/mL (≈ 8.8 to 35.2 µM)
MIC [5]: 2 to 16 µg/mL (≈ 4.4 to 35.2 µM)

Cc1ccc(C#N)cc1S(=O)(=O)N[C@@H]1CCN(Cc2ccc(-c3ccccc3)cc2)C1 [Compound 5, (R)-N-(1-([1,1′-biphenyl]-4-ylmethyl)pyrrolidin-3-yl)-5-cyano-2-methylbenzenesulfonamide]
MIC [5]: 2 to 16 µg/mL (≈ 4.63 to 37.1 µM)

Cc1ccc(F)cc1S(=O)(=O)N[C@@H]1CCN(Cc2ccc(-c3ccccc3)cc2)C1 [Compound 8, gyramide C]
MIC (E. coli JW5503): 0.1 µg/mL (≈ 0.236 µM)
MIC (E. coli BW25113): > 160 µg/mL
